# Measured values as given in patent US12478628B2, “Germ cell nuclear factor ligands and methods of use thereof” (Saint Louis University, priority 2020, dated 2025).
# Positions count from the first letter of the chain named.
# How the values were obtained:
# [1] = system: i3 neurons differentiated from induced pluripotent stem cells (iPSCs); test: iPSC differentiation to i3 neurons, morphology; assay type: cell-based; parameters: neurite outgrowth: dose or concentration left out as unconfirmed; details: ligand treatment before and during differentiation
# Protocol: iPSC Differentiation to Neurons. For growing neurons from iPSC cells, the method described by Femandopulle were employed (Femandopulle et al., 2018). Briefly, cells were treated with doxycycline to turn on expression of Neurogenin-2 (NGN2), which irreversibly sets these cells on the path of neuronal differentiation. The cells were treated with doxycycline for 3 days (changing media every day), and then re-plate the cells onto new plates coated with PLO. For each time point, 21 samples were prepared (DMSO and ligands 34 and 80 at different concentrations, in triplicate).
# An overview of the experiment timeline is shown as well: • Day 0: Plate iPSC on matrigel-coated 12-well plates • Day 2: Treat cells −/+ ligands in iPSC media • Day 3: Refeed cells induction media +Doxycycline −/+ ligands to start neuronal differentiation (Day 0 of differentiation) • Day 4: Refeed cells induction media +Doxycycline −/+ ligands (Day 1 of differentiation) • Day 5: Refeed cells induction media +Doxycycline −/+ ligands (Day 2 of differentiation) • Day 6: Take pictures; Refeed cells neuronal media −/+ ligands (Day 3 of differentiation) • Day 7: Collect cells for RNA/qPCR (Day 4 of differentiation)
# [2] = target: T1, GCNF LBD (Homo sapiens, UniProt Q15406); test: Solution 1H NMR methyl peak perturbation of GCNF LBD; assay type: binding; details: 1.05:1 molar equivalence of ligand; seven shielded resonances monitored
# T1 construct: Human GCNF (NR6A1) LBD (residues 248-480); made in house; host or cells: E. coli BL(21) DE3
# T1 sequence (Q15406 248-480): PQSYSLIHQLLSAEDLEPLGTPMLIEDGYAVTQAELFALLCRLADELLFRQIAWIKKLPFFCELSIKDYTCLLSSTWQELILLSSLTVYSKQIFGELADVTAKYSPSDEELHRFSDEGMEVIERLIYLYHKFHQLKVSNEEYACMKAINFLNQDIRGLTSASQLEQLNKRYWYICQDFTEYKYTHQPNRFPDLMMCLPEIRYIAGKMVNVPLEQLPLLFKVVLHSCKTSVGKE
# Protocol: Solution NMR spectroscopy. One hundred micromolar (100 μM) of GCNF LBD with 10% D2O were mixed with either 0.5% DMSO-d6 or 1.05:1 molar equivalence of ligand and transferred to a Shigemi tube. ^1H NMR data were acquired at 298 K on a 700 MHz Bruker Avance II HDTM NMR instrument equipped with a QCI cryoprobe. For each spectrum, 1024 transients were collected into 32,000 data points, with a spectral width of 16.7 kHz. Data were analyzed using Topspin 3.5 pl 7.
# [3] = target: T2, GCNF LBD with SMRT ID2 corepressor peptide (Homo sapiens, UniProt Q15406); test: FP ligand titration assay, SMRT ID2 peptide recruitment; assay type: biochemical; details: 20 μM GCNF LBD
# T2 construct: Human GCNF (NR6A1) LBD (residues 248-480); made in house; host or cells: E. coli BL(21) DE3
# Protocol: FP Assay. Fluorescence polarization (FP) assays were performed in triplicate on a 384-well Corning 3820 black opaque plate using a Biotek Synergy Neo2 HTS multimode microplate reader at excitation and emission wavelengths of 485 nm and 538 nm, respectively. Data were analyzed and plotted using GraphPad Prism as mean±SEM.
# For the FP ligand titration assay, the aforementioned N-terminus fluorescein-tagged corepressor peptides were diluted to 500 nM from a 100 μM DMSO stock in the presence of 20 μM GCNF LBD and ligand concentration points 30, 20, 13, 9, 6, 4, 2.6, 1.7 and 0 μM in assay buffer containing 50 mM HEPES (pH 7.5), 50 mM KCl, 5 mM TCEP, 0.5 mM EDTA and 0.005% Tween20. The relative polarization was plotted against log of ligand concentration (μM) and the half maximal effective concentration (EC50) values were derived via sigmoidal fit.
# [4] = target: T3, GCNF LBD F284A (Homo sapiens, UniProt Q15406, F284A); test: DSF of GCNF LBD mutant F284A; assay type: binding; details: 20 μM ligand
# T3 construct: Human GCNF (NR6A1) LBD (residues 248-480) and mutants F284A/F361A; hexahistidine tag with 3C protease site; made in house; host or cells: E. coli BL(21) DE3
# T3 sequence (Q15406 248-480 F284A): T1 sequence (Q15406 248-480) with F37A
# Protocol: Protein Expression and Purification. Human GCNF (NR6A1) LBD (residues 248-480) and mutants F284A/F361A, human LRH-1 (NR5A2) LBD (residues 291-541), human RXRα LBD (residues 223-462), human COUP-TF I LBD (residues 184-410) and human SF-1 LBD (residues 219-461) were subcloned in pET45b(+) plasmid (Novagen) were expressed in E. coli BL(21) DE3 cells in terrific broth with 0.1 mg/mL ampicillin as 3C protease-cleavable hexahistidine-tagged fusion proteins. The bacterial culture was grown at 37° C. to an optical density of 0.8 to 1.0 at 600 nm. Protein expression was induced by adding 1 mM IPTG and was allowed to proceed for 14 h at 22° C. […]
# DSF Assay. […] A total of 450 compounds (Life Chemicals) previously selected from a nuclear-receptor-biased library targeting REV-ERB were analyzed. Thermal stability was assessed on a Quantstudio 6 instrument (Biosystems) by ramping the temperature from 25° C. to 95° C. at 0.05° C./s and protein melt shifts were subsequently quantified by Boltzmann-derived melting temperature (Tm) using the Protein Thermal Shift (ThermoFisher) software. […]
# T2 sequence (Q9Y618 2332-2354 partner limits assumed, one chain of several): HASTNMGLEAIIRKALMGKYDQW
SMILES,area of cell bodies [1],neurite branching [1],neurite outgrowth [1],shielded methyl 1H NMR resonances of GCNF LBD perturbed [2],effect on recruitment of SMRT ID2 to GCNF [3],effect of mutation F284A on ΔTm compared to WT [4]
"Cc1ccc(-n2ncc3c(N4CCOCC4)nc(NCc4ccco4)nc32)cc1 [Ligand 34, N-[(furan-2-yl)methyl]-1-(4-methylphenyl)-4-(morpholin-4-yl)-1H-pyrazolo[3,4-d]pyrimidin-6-amine]",remain unchanged,more extensive branching,significant increase of neurite outgrowth,5 of 7,increased the recruitment,substantially decreased the ΔTm
"O=C(Cn1cc(S(=O)(=O)c2ccccc2)c2ccccc21)N1CCc2ccccc21 [Ligand 80, 2-[3-(benzenesulfonyl)-1H-indol-1-yl]-1-(2,3-dihydro-1H-indol-1-yl)ethan-1-one]",remain unchanged,more extensive branching,significant increase of neurite outgrowth,5 out of 7,"but not ligand 80, increased the recruitment of SMRT ID2",no substantial effect
